Legend:
DGAT-1 enzyme = biological target: T1, DGAT-1 enzyme (Homo sapiens, UniProt O75907); assay: DGAT-1 enzyme inhibition, phase partitioning assay (PPA), 96-well; type: biochemical; conditions: recombinant DGAT-1 produced in Sf9 insect cells; 1,2-di(cis-9-octadecenoyl)-sn-glycerol and octanoylCoA; read-out: IC50, concentration that inhibits 50% of the activity of DGAT-1
T1 construct: made in house; host or cells: Sf9 insect cells (baculovirus)
T1 sequence (O75907 1-488): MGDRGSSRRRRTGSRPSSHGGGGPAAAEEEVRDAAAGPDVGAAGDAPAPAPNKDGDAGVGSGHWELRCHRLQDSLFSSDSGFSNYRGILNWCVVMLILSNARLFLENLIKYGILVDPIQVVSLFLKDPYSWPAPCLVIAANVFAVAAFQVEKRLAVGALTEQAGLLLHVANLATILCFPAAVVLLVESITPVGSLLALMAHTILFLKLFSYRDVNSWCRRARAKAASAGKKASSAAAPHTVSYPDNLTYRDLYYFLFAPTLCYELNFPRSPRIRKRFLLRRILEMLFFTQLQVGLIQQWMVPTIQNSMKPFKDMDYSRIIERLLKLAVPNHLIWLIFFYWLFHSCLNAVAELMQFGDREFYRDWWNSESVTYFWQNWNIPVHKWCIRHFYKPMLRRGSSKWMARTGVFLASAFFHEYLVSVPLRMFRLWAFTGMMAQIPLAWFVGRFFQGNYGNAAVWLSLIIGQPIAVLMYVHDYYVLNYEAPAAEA
Method: The recombinant DGAT-1 protein was produced in Sf9 insect cells transfected with a baculovirus. The reaction was carried out by incubating the enzyme in the presence of 1,2-di(cis-9-octadecenoyl)-sn-glycerol and octanoylCoA. The amount of triacylglycerol formed during the reaction is measured. […] The radioactivity is measured using a MicroBeta counter (Perkin Elmer).

[1] = test system: triglyceride biosynthesis in Chang liver cells; assay: Inhibition of triglyceride biosynthesis in Chang liver cells ([14C] glycerol incorporation); conditions: read-out: inhibitory activity on triglyceride biosynthesis, concentration that inhibits 50% of the activity
Method: These trials consisted in measuring the in vitro inhibitory activity of the compounds of the invention on a cell test.
Chang liver cells at 80% confluence are detached with trypsin-EDTA, 4 ml per 175 cm^2 flask. After centrifugation at 1300×g for 5 minutes, the cell pellet is washed once with PBS and then resuspended in whole medium. The number of cells and their viability are determined on Mallassez cells via the exclusion method with trypan blue.
150 000 cells are inoculated per well into a 24-well plate for a minimum of 3 h in DMEM medium 4.5 g/l of glucose supplemented with 10% FCS and with antibiotics, and are maintained at 37° C. in an incubator with CO2 (5%).
After 3 h, the cells have adhered, the medium is removed and replaced overnight with DMEM medium 4.5 g/l of glucose with 2% of BSA/oleate.
Next, the cell membranes are destroyed by sonication on a water bath, for 30 minutes. […] The radioactivity is measured using a Flo One C625TR machine (Perkin-Elmer).
The inhibitory activity on triglyceride biosynthesis is given by the concentration that inhibits 50% of the activity.

Row | Structure (SMILES) | IC50 (DGAT-1 enzyme) [nM] | melting point [°C] | IC50 [1] [nM]
1 | CC(C)(c1ccccc1)c1noc(NC(=O)c2ccc(O[C@H]3CC[C@@H](C(=O)O)CC3)cc2)n1 [Compound 7] | 5700 | 250 to 255 | –
2 | O=C(Nc1ccc(NC2CCCC2)nn1)c1ccc(O[C@H]2CC[C@@H](C(=O)O)CC2)cc1 [Compound 9, cis 4-[4-(6-cyclopentylaminopyridazin-3-ylcarbamoyl)phenoxy]-cyclohexanecarboxylic acid] | 51 | – | –
3 | O=C(Nc1ccc(Nc2ccccc2)nn1)c1ccc(O[C@H]2CC[C@@H](C(=O)O)CC2)cc1 [Compound 11, cis-4-[4-(6-phenylaminopyridazin-3-ylcarbamoyl)phenoxy]cyclohexanecarboxylic acid] | 5910 | 259 to 261 | –
4 | O=C(O)/C=C/[C@H]1CC[C@H](c2ccc(C(=O)Nc3nc(Cc4ccccc4)no3)cc2)CC1 [Compound 3c, (E)-3-{4-[4-(3-benzyl[1.2.4]oxadiazol-5-ylcarbamoyl)phenyl]cyclohexyl}acrylic acid] | 2210 | 210 | –
5 | O=C(O)CC1CCC(c2ccc(C(=O)Nc3ccc(Cc4ccccc4)nn3)cc2)CC1 (stereo not drawn) [Compound 3, {4-[4-(6-benzylpyridazin-3-ylcarbamoyl)phenyl]cyclohexyl}acetic acid] | 890 | – | –
6 | O=C(Nc1nc(COc2ccccc2)no1)c1ccc(O[C@H]2CC[C@@H](C(=O)O)CC2)cc1 [Compound 8, cis-4-[4-(3-phenoxymethyl[1.2.4]oxadiazol-5-ylcarbamoyl)phenoxy]cyclohexanecarboxylic acid] | 94 | 210 to 212 | 319
7 | O=C(O)CC[C@H]1CC[C@H](c2ccc(C(=O)Nc3nc(Cc4ccccc4)no3)cc2)CC1 [Compound 3d, trans-3-{4-[4-(3-benzyl[1.2.4]oxadiazol-5-ylcarbamoyl)phenyl]cyclohexyl}propionic acid] | 927 | 193 | –

More lines, in order of falling IC50 (DGAT-1 enzyme), values ahead:

Row | IC50 (DGAT-1 enzyme) [nM] | melting point [°C] | Structure (SMILES) | IC50 [1] [nM]
8 | 7180 | 319 to 322 | COc1ccc(-c2ccc(NC(=O)c3ccc(O[C@H]4CC[C@@H](C(=O)O)CC4)cc3)nn2)cc1 [Compound 12, cis-4-{4-[6-(4-methoxyphenyl)pyridazin-3-ylcarbamoyl]phenoxy}-cyclohexanecarboxylic acid] | –
9 | 3760 | 215 to 222 | O=C(Nc1nc(C2(c3ccccc3)CC2)no1)c1ccc(O[C@H]2CC[C@@H](C(=O)O)CC2)cc1 [Compound 6, cis-4-{4-[3-(1-phenylcyclopropyl)[1.2.4]oxadiazol-5-ylcarbamoyl]phenoxy}-cyclohexanecarboxylic acid] | –
10 | 742 | 187 | O=C(Nc1nc(Cc2ccccc2)no1)c1ccc(C2CCC(C3CC3C(=O)O)CC2)cc1 (stereo not drawn) [Compound 3b, trans-2-{4-[4-(3-benzyl[1.2.4]oxadiazol-5-ylcarbamoyl)phenyl]cyclohexyl}cyclopropanecarboxylic acid] | –
11 | 81 | 205 to 210 | O=C(Nc1nc(Cc2ccccc2)no1)c1ccc(O[C@H]2CC[C@@H](C(=O)O)CC2)nc1 [Compound 10, cis-4-[5-(3-benzyl[1.2.4]oxadiazol-5-ylcarbamoyl)pyridin-2-yloxy]-cyclohexanecarboxylic acid] | –

— US20130137691A1, “DERIVATIVES OF OXADIAZOLE AND PYRIDAZINE, THEIR PREPARATION AND THEIR APPLICATION IN THERAPEUTICS” (SANOFI, priority 2010, published 2013)
